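Test compounds were applied to cells in 96-well plates for 48 hours at 5 doses. Abbreviation: GI50, concentration required for 50% inhibition of growth.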 Activity calls are given as the source filed them. Rule as the data show it: active = GI50 up to about 1.1 µM and inactive = higher.
How the values were obtained:
Assay in all cases: inhibition of tumour cell growth, NCI panel, 48 h
RPMI-8226 = tested on: RPMI-8226
SK-MEL-28 = tested on: SK-MEL-28
K562 = tested on: K562
ACHN = tested on: ACHN
786-0 = tested on: 786-0
HCT-15 = tested on: HCT-15
SNB-19 = tested on: SNB-19
NCI-H226 = tested on: NCI-H226
SW-620 = tested on: SW-620
Malme-3M = tested on: Malme-3M
SK-MEL-5 = tested on: SK-MEL-5
HOP-62 = tested on: HOP-62
A549 = tested on: A549
HCC 2998 = tested on: HCC 2998
Hs-578T = tested on: Hs-578T
MDA-MB-435 = tested on: MDA-MB-435
OVCAR-3 = tested on: OVCAR-3
OVCAR-8 = tested on: OVCAR-8
BT-549 = tested on: BT-549
NCI-H23 = tested on: NCI-H23
OVCAR-5 = tested on: OVCAR-5
T47D = tested on: T47D
CAKI-1 = tested on: CAKI-1
NCI/ADR-RES = tested on: NCI/ADR-RES
UACC-257 = tested on: UACC-257
MOLT-4 = tested on: MOLT-4
TK-10 = tested on: TK-10
SF-268 = tested on: SF-268
SF-295 = tested on: SF-295
EKVX = tested on: EKVX
OVCAR-4 = tested on: OVCAR-4
CCRF-CEM = tested on: CCRF-CEM
SK-MEL-2 = tested on: SK-MEL-2
MDA-MB-231 = tested on: MDA-MB-231
MCF7 = tested on: MCF7
KM12 = tested on: KM12
COLO 205 = tested on: COLO 205
U-251 = tested on: U-251
UACC-62 = tested on: UACC-62
DU-145 = tested on: DU-145
UO-31 = tested on: UO-31
PC-3 = tested on: PC-3
IGROV-1 = tested on: IGROV-1
MDA-N = tested on: MDA-N
HT-29 = tested on: HT-29
SK-OV-3 = tested on: SK-OV-3
HCT-116 = tested on: HCT-116
NCI-H522 = tested on: NCI-H522
M14 = tested on: M14
SN12C = tested on: SN12C
A498 = tested on: A498
RXF 393 = tested on: RXF 393
SR = tested on: SR
SF-539 = tested on: SF-539
HL-60 = tested on: HL-60
SNB-75 = tested on: SNB-75
NCI-H460 = tested on: NCI-H460
LOX IMVI = tested on: LOX IMVI

Structure (SMILES): CC(C)c1cc(C(C)C)c(S(=O)(=O)N/N=C2\CC3CCC2(C)C3(C)C)c(C(C)C)c1 (stereo not drawn)
- GI50 (RPMI-8226): 3.08 µM (inactive)
- GI50 (SK-MEL-28): 31.8 µM (inactive)
- GI50 (K562): 8.53 µM (inactive)
- GI50 (ACHN): 15 µM (inactive)
- GI50 (786-0): 28.4 µM (inactive)
- GI50 (HCT-15): 46 µM
- GI50 (SNB-19): 27.5 µM (inactive)
- GI50 (NCI-H226): 16.9 µM (inactive)
- GI50 (SW-620): 57.1 µM (inactive)
- GI50 (Malme-3M): 25.5 µM (inactive)
- GI50 (SK-MEL-5): 14.5 µM (inactive)
- GI50 (HOP-62): 74.8 µM (inactive)
- GI50 (A549): 23.6 µM (inactive)
- GI50 (HCC 2998): 23.3 µM (inactive)
- GI50 (Hs-578T): 29.7 µM (inactive)
- GI50 (MDA-MB-435): 34.8 µM (inactive)
- GI50 (OVCAR-3): 33.7 µM (inactive)
- GI50 (OVCAR-8): > 100 µM (inactive)
- GI50 (BT-549): > 100 µM (inactive)
- GI50 (NCI-H23): 17.4 µM (inactive)
- GI50 (OVCAR-5): 48 µM (inactive)
- GI50 (T47D): 11.8 µM (inactive)
- GI50 (CAKI-1): 20.2 µM (inactive)
- GI50 (NCI/ADR-RES): 20.8 µM (inactive)
- GI50 (UACC-257): 4.84 µM (inactive)
- GI50 (MOLT-4): 6.68 µM (inactive)
- GI50 (TK-10): 38.8 µM (inactive)
- GI50 (SF-268): 34.9 µM (inactive)
- GI50 (SF-295): 10.4 µM (inactive)
- GI50 (EKVX): 11 µM (inactive)
- GI50 (OVCAR-4): 29 µM (inactive)
- GI50 (CCRF-CEM): 4.69 µM (inactive)
- GI50 (SK-MEL-2): 18.9 µM (inactive)
- GI50 (MDA-MB-231): 5.74 µM (inactive)
- GI50 (MCF7): 10 µM (inactive)
- GI50 (KM12): 36.1 µM (inactive)
- GI50 (COLO 205): 12.9 µM (inactive)
- GI50 (U-251): 23.3 µM (inactive)
- GI50 (UACC-62): 37.3 µM (inactive)
- GI50 (DU-145): 18 µM (inactive)
- GI50 (UO-31): 30.4 µM (inactive)
- GI50 (PC-3): 18.3 µM (inactive)
- GI50 (IGROV-1): 27.3 µM (inactive)
- GI50 (MDA-N): 15.1 µM (inactive)
- GI50 (HT-29): 14.1 µM (inactive)
- GI50 (SK-OV-3): 55.3 µM (inactive)
- GI50 (HCT-116): 17.8 µM (inactive)
- GI50 (NCI-H522): 5.37 µM (inactive)
- GI50 (M14): 51.6 µM (inactive)
- GI50 (SN12C): 12.4 µM (inactive)
- GI50 (A498): 0.0222 µM (active)
- GI50 (RXF 393): 11.7 µM (inactive)

Structure (SMILES): CC(=O)OCC1=C2C(OC(=O)C(C)C)CC3(COC(C)=O)OC3/C=C\C3(C)OC3C2OC1=O (stereo not drawn)
- GI50 (RPMI-8226): > 100 µM (inactive)
- GI50 (SK-MEL-28): > 100 µM (inactive)
- GI50 (SR): > 100 µM (inactive)
- GI50 (K562): > 100 µM (inactive)
- GI50 (ACHN): > 100 µM (inactive)
- GI50 (SF-539): > 100 µM (inactive)
- GI50 (786-0): > 100 µM (inactive)
- GI50 (HCT-15): > 100 µM
- GI50 (SNB-19): > 100 µM (inactive)
- GI50 (HL-60): 34.4 µM (inactive)
- GI50 (NCI-H226): > 100 µM (inactive)
- GI50 (SW-620): > 100 µM (inactive)
- GI50 (Malme-3M): > 100 µM (inactive)
- GI50 (SK-MEL-5): > 100 µM (inactive)
- GI50 (HOP-62): > 100 µM (inactive)
- GI50 (SNB-75): > 100 µM (inactive)
- GI50 (A549): > 100 µM (inactive)
- GI50 (HCC 2998): > 100 µM (inactive)
- GI50 (Hs-578T): > 100 µM (inactive)
- GI50 (MDA-MB-435): > 100 µM (inactive)
- GI50 (OVCAR-3): > 100 µM (inactive)
- GI50 (OVCAR-8): > 100 µM (inactive)
- GI50 (BT-549): > 100 µM (inactive)
- GI50 (NCI-H23): > 100 µM (inactive)
- GI50 (OVCAR-5): > 100 µM (inactive)
- GI50 (NCI-H460): > 100 µM (inactive)
- GI50 (T47D): > 100 µM (inactive)
- GI50 (CAKI-1): > 100 µM (inactive)
- GI50 (UACC-257): > 100 µM (inactive)
- GI50 (MOLT-4): > 100 µM (inactive)
- GI50 (TK-10): > 100 µM (inactive)
- GI50 (SF-268): > 100 µM (inactive)
- GI50 (SF-295): > 100 µM (inactive)
- GI50 (EKVX): > 100 µM (inactive)
- GI50 (OVCAR-4): > 100 µM (inactive)
- GI50 (CCRF-CEM): 50.5 µM (inactive)
- GI50 (SK-MEL-2): > 100 µM (inactive)
- GI50 (MDA-MB-231): > 100 µM (inactive)
- GI50 (MCF7): > 100 µM (inactive)
- GI50 (KM12): > 100 µM (inactive)
- GI50 (COLO 205): > 100 µM (inactive)
- GI50 (U-251): > 100 µM (inactive)
- GI50 (UACC-62): > 100 µM (inactive)
- GI50 (DU-145): > 100 µM (inactive)
- GI50 (UO-31): > 100 µM (inactive)
- GI50 (PC-3): > 100 µM (inactive)
- GI50 (IGROV-1): > 100 µM (inactive)
- GI50 (MDA-N): > 100 µM (inactive)
- GI50 (HT-29): > 100 µM (inactive)
- GI50 (SK-OV-3): > 100 µM (inactive)
- GI50 (HCT-116): > 100 µM (inactive)
- GI50 (M14): > 100 µM (inactive)
- GI50 (SN12C): > 100 µM (inactive)
- GI50 (A498): > 100 µM (inactive)
- GI50 (LOX IMVI): > 100 µM (inactive)
- GI50 (RXF 393): > 100 µM (inactive)
